Experimental data: patent publication US20210230131A1, “POLYAMINO BIARYL COMPOUNDS AND THEIR USE” (INSERM (INSTITUT NATIONAL DE LA SANTÉ ET DE LA RECHERCHE …, priority 2018, published 2021)

How the values were obtained:
Aβ1-42 peptide secretion = assay: Quantification of secreted Aβ1-42 by ELISA in SY5Y-APP695WT cells; type: cell-based; details: Homo sapiens; concentration inhibiting 50% of Aβ1-42 peptide secretion in SY5Y cells; 24 h treatment; mean ± SD of at least two experiments in triplicate
Protocol: (§1) Cell culture and treatment. The human neuroblastoma cell line […] was maintained in Dulbecco's modified Eagle medium (DMEM, high glucose, pyruvate-GIBCO by Life Technologies) supplemented with 10% foetal bovine serum, 2 mM L-glutamine, 1 mM non-essential amino acids and penicillin/streptomycin (GIBCO by Life Technologies) at 37° C. in a 5% CO2 humidified incubator. […] cells were maintained in 75 cm^2 culture flasks (Falcon) with supplemented DMEM medium until they reached 80% of confluence 24 h before treatment. For compounds treatment, a 10 mM stock solution was diluted in freshly supplemented DMEM medium to obtain the precise final concentration of drug. Bafilomycin A1 (BafA1), the vacuolar […] type H+ ATPase inhibitor, was purchased from Merck Millipore and was used at a final dilution of 100 nM. For drug treatment, cells were plated at a rate of 5·10^5 cells per well into 12-well plates (Falcon) and cultured with 1 mL supplemented DMEM cell medium for 24 h before drug exposure. The following day, cell medium was replaced with fresh medium containing drugs diluted at the indicated concentrations. Cells were treated for 24 h. At the end of treatments, the cell medium was collected and kept at -80° C. until use for dosage. Then, cells were rinsed once with PBS and extracted in 100 μL of Laemmli buffer (10 mM Tris, 20% glycerol and 2% Sodium dodecyl sulfate) using a cell-scraper. The cell lysate was further sonicated (30 pulses of 0.5 s, 60 Hz) for 5 min. Total protein concentration was determined using the Pierce BCA Protein Assay Kit (Thermo scientific) according to the manufacturer's instructions. Samples were stored at -80° C. until analysis. Quantification of secreted Aβ1-40/1-42 and sAPPα/sAPPβ. Conditioned media of […] collected at the end of treatments were centrifuged at 1000 g for 5 min to eliminate cells debris. Aβ1-40 and Aβ1-42 peptide concentrations in […] were determined using amyloid-beta 40 and 42 Human ELISA kits (Invitrogen) according to the manufacturer's instructions after 1:10 and 1:2 dilutions of supernatants in ELISA buffer, respectively. sAPPα and sAPPβ concentrations in ng/mL were determined using the sAPPα/sAPPβ kit (Meso Scale Diagnostics, MSD®) according to the manufacturer's instructions. Compounds of the invention (compounds 24-37, 41, 44 and 51-58) were evaluated for their ability to modulate APP processing on SY5Y human neuroblastoma cell line stably expressing the neuronal isoform of human wild-type APP695 (SYSY-APPwt). Aβ levels (Aβ1-40 and Aβ1-42) after treatment with reference and tested compounds were measured by ELISA (Table 2). […] APP carboxy-terminal fragments (αCTFs and AICD) were measured by Western blot and quantified. The effect of reference and tested compounds on αCTFs and AICD are expressed as the intensity of corresponding western-blot bands resulting from the secretase cleavages.

Aβ1-40 peptide secretion = assay: Quantification of secreted Aβ1-40 by ELISA in SY5Y-APP695WT cells; type: cell-based; details: Homo sapiens; concentration inhibiting 50% of Aβ1-40 peptide secretion in SY5Y cells; 24 h treatment; mean ± SD of at least two experiments in triplicate
Protocol: as §1

| Structure (SMILES) | IC50 (Aβ1-42 peptide secretion) | IC50 (Aβ1-40 peptide secretion) |
| --- | --- | --- |
| CN(C)Cc1ccccc1-c1ccc(NCCCN2CCCCC2)c(OCCN2CCCCC2)c1 [Compound 30, 4-(2-[(Dimethylamino)methyl]phenyl)-2-[2-(piperidin-1-yl)ethoxy]-N-[3-(piperidin-1-yl)propyl]aniline] | 3.4 ± 1.9 µM | 2.8 ± 1.2 µM |
| CN(C)Cc1ccccc1-c1ccc(NCCCN2CCCCC2)c(OCCC2CCCCC2)c1 [Compound 31, 3-(2-cyclohexylethoxy)-2′-((dimethylamino)methyl)-N-(3-(piperidin-1-yl)propyl)-[1,1′-biphenyl]-4-amine] | 2.8 ± 0.1 µM | 2.1 ± 0.3 µM |
